Test results: patent US7659404B2, “Broad spectrum 2-(substituted-amino)-benzothiazole sulfonamide HIV protease inhibitors” (Tibotec Pharmaceuticals Ltd., priority 2001, dated 2010)

Key:
[1] = test system: virus strain S (R13080); assay: microbe, parasite or virus in culture; type: cell-based, HIV; settings: for EC50: Human immunodeficiency virus 1, MT4, read-out: HIV-AVE-MT4-MTT-R13080-2-002 pEC50, virus strain S (R13080), MT4 cells, MTT (converted); for HIV-AVE-MT4-MTT-R13080-2-002 pEC50: virus strain S (R13080), MT4 cells
Protocol: (§1) HIV- or mock-infected MT4 cells were incubated for five days in the presence of various concentrations of the inhibitor. […] Cell viability is measured by measuring the concentration of MTT, a yellow, water soluble tetrazolium dye that is converted to a purple, water insoluble formazan in the mitochondria of living cells only. Upon solubilization of the resulting formazan crystals with isopropanol, the absorbance of the solution is monitored at 540 nm. The values correlate directly to the number of living cells remaining in the culture at the completion of the five day incubation. The inhibitory activity of the compound was monitored on the virus-infected cells and was expressed as EC50 and EC90. These values represent the amount of the compound required to protect 50% and 90%, respectively, of the cells from the cytopathogenic effect of the virus. The toxicity of the compound was measured on the mock-infected cells and was expressed as CC50, which represents the concentration of compound required to inhibit the growth of the cells by 50%. The selectivity index (SI) (ratio CC50/EC50) is an indication of the selectivity of the anti-HIV activity of the inhibitor.
(§2) Because of the increasing emergence of drug resistant HIV strains, the present compounds were tested for their potency against clinically isolated HIV strains harboring several mutations.
(§3) As a measure of the broad spectrum activity of the present compounds, the fold resistance (FR) defined as FR=EC50(mutant strain)/EC50(HIV-1 strain LAI).

[2] = test system: virus strain F (R13025); assay: microbe, parasite or virus in culture; type: cell-based, HIV; settings: for EC50: Human immunodeficiency virus 1, MT4, read-out: HIV-AVE-MT4-MTT-R13025-2-002 pEC50, virus strain F (R13025), MT4 cells, MTT (converted); for HIV-AVE-MT4-MTT-R13025-2-002 pEC50: virus strain F (R13025), MT4 cells
Protocol: as §1, §2, §3

[3] = test system: wild type virus (IIIB); assay: HIV-AVE-MT4-MTT cellular assay, wild type virus (IIIB); type: cell-based; settings: MT4 cells, MTT; for EC50: Human immunodeficiency virus 1, IIIB, MT4, wild type virus (IIIB), read-out: HIV-AVE-MT4-MTT-IIIB-2-002 pEC50 (converted); for HIV-AVE-MT4-MTT-IIIB-2-002 pEC50: wild type virus (IIIB)
Protocol: HIV- or mock-infected MT4 cells were incubated for five days in the presence of various concentrations of the inhibitor. At the end of the incubation period, all HIV-infected cells have been killed by the replicating virus in the control cultures in the absence of any inhibitor. Cell viability is measured by measuring the concentration of MTT, a yellow, water soluble tetrazolium dye that is converted to a purple, water insoluble formazan in the mitochondria of living cells only. Upon solubilization of the resulting formazan crystals with isopropanol, the absorbance of the solution is monitored at 540 nm. The values correlate directly to the number of living cells remaining in the culture at the completion of the five day incubation. The inhibitory activity of the compound was monitored on the virus-infected cells and was expressed as EC50 and EC90. These values represent the amount of the compound required to protect 50% and 90%, respectively, of the cells from the cytopathogenic effect of the virus. The toxicity of the compound was measured on the mock-infected cells and was expressed as CC50, which represents the concentration of compound required to inhibit the growth of the cells by 50%. The selectivity index (SI) (ratio CC50/EC50) is an indication of the selectivity of the anti-HIV activity of the inhibitor.

Compound | EC50 [1] [nM] | EC50 [2] [nM] | EC50 [3] [nM] | HIV-AVE-MT4-MTT-R13080-2-002 pEC50 [1] | HIV-AVE-MT4-MTT-R13025-2-002 pEC50 [2] | HIV-AVE-MT4-MTT-IIIB-2-002 pEC50 [3]
Cc1cccc(C)c1OCC(=O)N[C@@H](Cc1ccccc1)[C@H](O)CN(CC(C)C)S(=O)(=O)c1ccc2nc(NC(=O)C3CC(=O)N(Cc4ccco4)C3)sc2c1 (stereo partly drawn) [Compound 114] | 141 | 33.9 | 20.4 | – | – | –
Cc1cccc(C)c1OCC(=O)N[C@@H](Cc1ccccc1)[C@H](O)CN(CC(C)C)S(=O)(=O)c1ccc2nc(N(C)CCN3CCCC3)sc2c1 [Compound 115] | 10000 | 6170 | 759 | – | – | –
COc1cc(C(=O)Nc2nc3ccc(S(=O)(=O)N(CC(C)C)C[C@@H](O)[C@H](Cc4ccccc4)NC(=O)COc4c(C)cccc4C)cc3s2)cc(OC)c1O [Compound 116] | 43.7 | 32.4 | 31.6 | – | – | –
Cc1cccc(C)c1OCC(=O)N[C@@H](Cc1ccccc1)[C@H](O)CN(CC(C)C)S(=O)(=O)c1ccc2nc(NC(=O)c3cccc(O)c3C)sc2c1 [Compound 117] | 191 | 35.5 | 47.9 | – | – | –
CC(=O)NCCNc1nc2ccc(S(=O)(=O)N(CC(C)C)C[C@@H](O)[C@H](Cc3ccccc3)NC(=O)OC(C)(C)C)cc2s1 [Compound 121] | 10000 | 2820 | 20.9 | – | – | –
Cc1cccc(C)c1OCC(=O)N[C@@H](Cc1ccccc1)[C@H](O)CN(CC(C)C)S(=O)(=O)c1ccc2nc(NC(=O)c3ccncc3)sc2c1 [Compound 125] | 145 | 26.9 | 6.31 | – | – | –
CC(C)CN(C[C@@H](O)[C@H](Cc1ccccc1)NC(=O)OC(C)(C)C)S(=O)(=O)c1ccc2nc(NCCN3CCCC3)sc2c1 [Compound 126] | 10000 | 3160 | 49 | – | – | –
Cc1cccc(C)c1OCC(=O)N[C@@H](Cc1ccccc1)[C@H](O)CN(CC(C)C)S(=O)(=O)c1ccc2nc(NC(=O)C3CCN(C)CC3)sc2c1 [Compound 127] | 135 | 31.6 | 16.6 | – | – | –
Cc1cccc(C)c1OCC(=O)N[C@@H](Cc1ccccc1)[C@H](O)CN(CC(C)C)S(=O)(=O)c1ccc2nc(NC(=O)C3CCCN(C)C3)sc2c1 (stereo partly drawn) [Compound 128] | 56.2 | 19.1 | 5.89 | – | – | –
Cc1cccc(C)c1OCC(=O)N[C@@H](Cc1ccccc1)[C@H](O)CN(CC(C)C)S(=O)(=O)c1ccc2nc(NCc3ccncc3)sc2c1 [Compound 131] | 1050 | 832 | 46.8 | – | – | –
CC(=O)NCCNc1nc2ccc(S(=O)(=O)N(CC(C)C)C[C@@H](O)[C@H](Cc3ccccc3)NC(=O)COc3c(C)cccc3C)cc2s1 [Compound 133] | 158 | 33.9 | 21.4 | – | – | –
Cc1cccc(C)c1OCC(=O)N[C@@H](Cc1ccccc1)[C@H](O)CN(CC(C)C)S(=O)(=O)c1ccc2nc(N3CCCC3C(=O)O)sc2c1 (stereo partly drawn) [Compound 139] | 10000 | 3090 | 2090 | – | – | –
CC(C)CN(C[C@@H](O)[C@H](Cc1ccccc1)NC(=O)O[C@H]1CO[C@H]2OCC[C@H]21)S(=O)(=O)c1ccc2nc(N(C)CCCN(C)C)sc2c1 [Compound 141] | – | – | – | 6.02 | 6.49 | 7.83
COC(=O)CCNc1nc2ccc(S(=O)(=O)N(CC(C)C)C[C@@H](O)[C@H](Cc3ccccc3)NC(=O)OC(C)(C)C)cc2s1 [Compound 143] | 10000 | 10000 | 74.1 | – | – | –
Cc1cccc(C)c1OCC(=O)Nc1nc2ccc(S(=O)(=O)N(CC(C)C)C[C@@H](O)[C@H](Cc3ccccc3)NC(=O)COc3c(C)cccc3C)cc2s1 [Compound 145] | 145 | 39.8 | 12.6 | – | – | –
CC(C)CN(C[C@@H](O)[C@H](Cc1ccccc1)NC(=O)OC1CCSC1)S(=O)(=O)c1ccc2nc(NCCN(C)C)sc2c1 (stereo partly drawn) [Compound 146] | 1000 | 302 | 9.55 | – | – | –
CNCCNc1nc2ccc(S(=O)(=O)N(CC(C)C)C[C@@H](O)[C@H](Cc3ccccc3)NC(=O)OCc3cncs3)cc2s1 [Compound 150] | 661 | 162 | 42.7 | – | – | –

Compound | EC50 [1] [nM] | EC50 [2] [nM] | EC50 [3] [nM] | HIV-AVE-MT4-MTT-R13080-2-002 pEC50 [1] | HIV-AVE-MT4-MTT-R13025-2-002 pEC50 [2] | HIV-AVE-MT4-MTT-IIIB-2-002 pEC50 [3]
CC(C)CN(C[C@@H](O)[C@H](Cc1ccccc1)NC(=O)OCc1cncs1)S(=O)(=O)c1ccc2nc(N3CCN(C)C3=O)sc2c1 [Compound 151] | 2690 | 813 | 107 | – | – | –
CC(C)CN(C[C@@H](O)[C@H](Cc1ccccc1)NC(=O)OCc1cncs1)S(=O)(=O)c1ccc2nc(N(C)C(=O)c3cc(ON)cc(ON)c3)sc2c1 [Compound 152] | 1740 | 562 | 33.1 | – | – | –
CC(C)CN(C[C@@H](O)[C@H](Cc1ccccc1)NC(=O)OCc1cncs1)S(=O)(=O)c1ccc2nc(N(C)C(=O)c3cccnc3)sc2c1 [Compound 153] | 339 | 45.7 | 7.41 | – | – | –
CC(C)CN(C[C@@H](O)[C@H](Cc1ccccc1)NC(=O)OCc1cncs1)S(=O)(=O)c1ccc2nc(N(C)C(=O)c3ccccn3)sc2c1 [Compound 154] | 372 | 38 | 5.5 | – | – | –
CC(C)CN(C[C@@H](O)[C@H](Cc1ccccc1)NC(=O)OCc1cncs1)S(=O)(=O)c1ccc2nc(NC(=O)CN3CCNCC3)sc2c1 [Compound 155] | – | 24.5 | 42.7 | 7.49 | – | –
CC(C)CN(C[C@@H](O)[C@H](Cc1ccccc1)NC(=O)OCc1cncs1)S(=O)(=O)c1ccc2nc(NC(=O)CN3CCN(C)CC3)sc2c1 [Compound 156] | 27.5 | – | 7.24 | – | 8.27 | –
CC(C)CN(C[C@@H](O)[C@H](Cc1ccccc1)NC(=O)OCc1cncs1)S(=O)(=O)c1ccc2nc(NC(=O)CN3CCNCC3)sc2c1 [Compound 157] | – | – | – | 6.85 | 7.5 | 7.54
CC(C)CN(C[C@@H](O)[C@H](Cc1ccccc1)NC(=O)OCc1cncs1)S(=O)(=O)c1ccc2nc(NC(=O)CN3CCOCC3)sc2c1 [Compound 158] | 30.2 | 7.94 | 3.31 | – | – | –
CC(C)CN(C[C@@H](O)[C@H](Cc1ccccc1)NC(=O)OCc1cncs1)S(=O)(=O)c1ccc2nc(NC(=O)CN3CCN(C)CC3)sc2c1 [Compound 159] | – | – | – | 7.46 | 7.78 | 8.1
CC(C)CN(C[C@@H](O)[C@H](Cc1ccccc1)NC(=O)OCc1cncs1)S(=O)(=O)c1ccc2nc(C(C)C(=O)CCCC(=O)O)sc2c1 (stereo partly drawn) [Compound 160] | 2450 | 479 | 51.3 | – | – | –
CC(C)CN(C[C@@H](O)[C@H](Cc1ccccc1)NC(=O)OCc1cncs1)S(=O)(=O)c1ccc2nc(NC(=O)C3CCC(=O)N3)sc2c1 (stereo partly drawn) [Compound 161] | 33.9 | 17.4 | 9.12 | – | – | –
CC(C)CN(C[C@@H](O)[C@H](Cc1ccccc1)NC(=O)OCc1cncs1)S(=O)(=O)c1ccc2nc(NC(=O)c3cc(ON)cc(ON)c3)sc2c1 [Compound 162] | 158 | 46.8 | 20.4 | – | – | –
CC(C)CN(C[C@@H](O)[C@H](Cc1ccccc1)NC(=O)OCc1cncs1)S(=O)(=O)c1ccc2nc(NC(=O)c3cccnc3)sc2c1 [Compound 163] | 214 | 49 | 11.5 | – | – | –
CC(C)CN(C[C@@H](O)[C@H](Cc1ccccc1)NC(=O)OCc1cncs1)S(=O)(=O)c1ccc2nc(NC(=O)c3ccoc3)sc2c1 [Compound 164] | 158 | 33.9 | 7.08 | – | – | –
CC(C)CN(C[C@@H](O)[C@H](Cc1ccccc1)NC(=O)OCc1cncs1)S(=O)(=O)c1ccc2nc(NC(=O)c3ccccn3)sc2c1 [Compound 165] | 631 | 123 | 44.7 | – | – | –
CC(C)CN(C[C@@H](O)[C@H](Cc1ccccc1)NC(=O)OCc1cncs1)S(=O)(=O)c1ccc2nc(NC(=O)[C@@H]3CCCN3C)sc2c1 [Compound 166] | 74.1 | 21.9 | 6.31 | – | – | –
